From patent US20050267038A1, “Novel diphenylazetidinones, process for their preparation, medicaments comprising these compounds and their use” (Aventis Pharma Deutschland GmbH, priority 2000, published 2005)

Key:
cholesterol absorption = test: Cholesterol absorption test: uptake of 14C-cholesterol by the liver; assay type: in vivo, mouse; conditions: dose at which the uptake of 14C-cholesterol by the liver is halved (50%), based on a control group; test substance given immediately prior to peroral test meal; liver after 24 h
Excerpt: Effect on Cholesterol Absorption +^3H-Taurocholic Acid Excretion Using Fecal Excrement of Mice, Rats or Hamsters
NMRI mice, Wistar rats, or Golden Syrian hamsters (in groups of n=4-6) are kept in metabolic cages, where they are fed with a standard diet (Altromin, Lage (Lippe)). The afternoon prior to the administration of the radioactive tracers (^14C-cholesterol), the feed is removed and the animals are adapted to grates.
Additionally, the animals are labeled s.c. with ^3H-TCA (taurocholic acid) (for example 1 μCi/mouse up to 5 μCi/rat) 24 hours prior to the peroral administration of the test meal (^14C-cholesterol in Intralipid® 20, Pharmacia-Upjohn).
Cholesterol absorption test: 0.25 ml/mouse Intralipid® (Pharmacia-Upjohn) ((spiked with 0.25 μCi of ^14C-cholesterol in 0.1 mg of cholesterol) is administered perorally by gavage.
Test substances are prepared separately in 0.5% methylcellulose (Sigma)/5% Solutol (BASF, Ludwigshafen) or a suitable vehicle.
The administration volume of the test substance is 0.5 ml/mouse. The test substance is administered immediately prior to the test meal (Intralipid labeled with ^14C-cholesterol) (cholesterol absorption test).
The feces are collected over a period of 24 h: fecal elimination of ^14C-cholesterol and ^3H-taurocholic acid (TCA) is determined after 24 hours.
The livers are removed and homogenized, and aliquots are incinerated in an oximate (Model 307, Packard) to determine the amount of ^14C-cholesterol which had been taken up/absorbed.
The amount of ^14C-cholesterol taken up by the liver is based on the administered dose. The ED50 values are interpolated from a dose-effect curve as the dose at which the uptake of ^14C-cholesterol by the liver is halved (50%), based on a control group.

Caco-2 cell monolayers = test: Bioabsorption, Caco cell model; assay type: in vitro ADME; conditions: estimated from Caco cell model
Excerpt: (§1) The bioabsorption of the compounds of the formula I can be examined using the Caco cell model (A. R. Hilgers et al., Caco-2 cell monolayers as a model for drug transport across the intestinal mucosa, Pharm. Res. 1990, 7, 902).
(§2) Below is a bioabsorption measurement for a reference compound: […]

[1] = Bioabsorption, Caco cell model; assay type: in vitro ADME; conditions: human, Caco-2; Caco cell model; read-out: Apparent partition coefficient Papp (according to Lit. Hilgers)
Excerpt: as §1, §2

| SMILES | ED50 (liver) (cholesterol absorption) | Estimated human bioabsorption (Caco-2 cell monolayers) | Papp [1] |
| --- | --- | --- | --- |
| O=C(NCc1ccc(C2C(CCC(O)c3ccc(F)cc3)C(=O)N2c2ccc(F)cc2)cc1)C(O)C(O)C(O)C(O)CO (stereo not drawn) [Example II] | 0.1 mg/mouse | – | – |
| C[N+](C)(C)CCCC(=O)NCc1ccc(C2C(CCC(O)c3ccc(F)cc3)C(=O)N2c2ccc(F)cc2)cc1.O=C([O-])C(F)(F)F (stereo not drawn) [Example XV, [3-(4-{1-(4-Fluorophenyl)-3-[3-(4-fluorophenyl)-3-hydroxypropyl]-4-oxoazetidin-2-yl}benzylcarbamoyl)propyl]trimethylammonium trifluoroacetate] | 0.01 mg/mouse | – | – |
| COc1ccc(C2C(CCC(O)c3ccc(F)cc3)C(=O)N2c2ccc(CNC(=O)CCCCN(Cc3ccccc3)CC(O)C(O)C(O)C(O)CO)cc2)cc1.O=C(O)C(F)(F)F (stereo not drawn) [Example XVIII, Benzyl-(4-{4-[3-[3-(4-fluorophenyl)-3-hydroxypropyl]-2-(4-methoxyphenyl)-4-oxoazetidin-1-yl]benzylcarbamoyl}butyl)-(2,3,4,5,6-pentahydroxyhexyl)ammonium trifluoroacetate] | 1.0 mg/mouse | – | – |
| COc1ccc(C2C(CCC(O)c3ccc(F)cc3)C(=O)N2c2ccc(CNC(C)=O)cc2)cc1 (stereo not drawn) [Example XX, N-{4-[3-[3-(4-Fluorophenyl)-3-hydroxypropyl]-2-(4-methoxyphenyl)-4-oxoazetidin-1-yl]benzyl}acetamide] | 0.03 mg/mouse | – | – |
| C[N+](C)(C)CCCCC(NC(=O)OCC1c2ccccc2-c2ccccc21)C(=O)NCc1ccc(C2C(CCC(O)c3ccc(F)cc3)C(=O)N2c2ccc(F)cc2)cc1.[Cl-] (stereo not drawn) [Example XXI] | 1.0 mg/mouse | – | – |
| CN(CCOCCOCCOc1ccc(C2C(CCC(O)c3ccc(F)cc3)C(=O)N2c2ccc(F)cc2)cc1)CC(O)C(O)C(O)C(O)CO (stereo not drawn) [Example XXX, 1-(4-Fluorophenyl)-3-[3-(4-fluorophenyl)-3-hydroxypropyl]-4-{4-[2-(2-{2-[methyl-(2,3,4,5,6-pentahydroxyhexyl)amino]ethoxy}ethoxy)ethoxy]phenyl}azetidin-2-one] | 0.1 mg/mouse | – | – |
| O=C1[C@H](CC[C@H](O)c2ccc(F)cc2)[C@@H](c2ccc(O)cc2)N1c1ccc(F)cc1 [Ezetimibe] | – | 100% | 4.88 ×10⁻⁶ cm/s |
| COc1ccc(C2C(CCC(O)c3ccc(F)cc3)C(=O)N2c2ccc(CNC(=O)CCCCCCCCCCCNC(=O)C(O)C(O)C(O)C(O)CO)cc2)cc1 (stereo not drawn) [III, N-4-[3-[3-(4-Fluorophenyl)-3-hydroxypropyl]-2-(4-methoxyphenyl)-4-oxoazetidin-1-yl]benzyl-12-(2,3,4,5,6-pentahydroxyhexanoylamino)dodecanamide] | 0.003 mg/mouse | – | – |
| O=C(COCCOCC(=O)NCc1ccc(C2C(CCC(O)c3ccc(F)cc3)C(=O)N2c2ccc(F)cc2)cc1)NCCOCCOCC(=O)C(O)C(O)C(O)C(O)CO (stereo not drawn) [XIII, N-(4-{1-(4-Fluorophenyl)-3-[3-(4-fluorophenyl)-3-hydroxypropyl]-4-oxoazetidin-2-yl}-benzyl)-2-[2-({2-[2-(3,4,5,6,7-pentahydroxy-2-oxoheptyloxy)ethoxy]-ethylcarbamoyl}-methoxy)ethoxy]acetamide] | 0.3 mg/mouse | – | – |
| C[N+](C)(C)CCCCCOc1ccc(C2C(CCC(O)c3ccc(F)cc3)C(=O)N2c2ccc(F)cc2)cc1.[Br-] (stereo not drawn) [XXIV, [5-(4-{1-(4-Fluorophenyl)-3-[3-(4-fluorophenyl)-3-hydroxypropyl]-4-oxoazetidin-2-yl}phenoxy)pentyl]trimethylammonium bromide] | 0.3 mg/mouse | – | – |
| CN(CCCCOc1ccc(C2C(CCC(O)c3ccc(F)cc3)C(=O)N2c2ccc(F)cc2)cc1)CC(O)C(O)C(O)C(O)CO (stereo not drawn) [XXV, 1-(4-Fluorophenyl)-3-[3-(4-fluorophenyl)-3-hydroxypropyl]-4-(4-{4-[methyl-(2,3,4,5,6-pentahydroxyhexyl)amino]butoxy}phenyl)azetidin-2-one] | 0.3 mg/mouse | – | – |
